Measured values as given in patent US6764854B2, “Methods for generating doubled haploid plants” (Northwest Plant Breeding Company, priority 1998, dated 2004).
Several values for one entry are separate records, joined by “and”; a condition that tells them apart may be missing. Equal entries are not always repeated.

What was measured:
[1] = test system: microspores of wheat cultivar Chris; assay: Effect of 2-HNA concentration on embryoid induction and green plant regeneration (Example 2); format: cell-based
Procedure: (§1) Pretreatment of Spikes. After removing the lower nodal section, the collected tillers are placed in an autoclaved sterile flask, containing 50 ml of sterile (autoclaved) distilled water and preferably 0.1% (w/v) 2-HNA and 10^−6 to 10^−5 M 2,4-D. The open end of a plastic bag (thin-walled, grocery store bag) is then wrapped around the neck of the flask and sealed around the neck with masking tape to prevent microbial contamination and excessive loss of water. The flask is then placed in an incubator set at the desired stress temperature, optionally 33° C., but the temperature employed may be higher or lower. The optimum period of pretreatment varies with the genotype, but is preferably from between about 0.5 hours and about 72 hours, depending on the temperature. A presently preferred temperature pretreatment regime is from about 48 hours to about 72 hours at a temperature of about 33° C. The flask containing tillers can also be stored in a refrigerator at 4° C. for up to 1 month before subjecting the microspores to temperature stress treatment. It is important that after the temperature stress treatment, the tillers should not be stored in a refrigerator at 4° C. because the microspore viability goes down sharply.
(§2) Culture of isolated microspores. Isolated microspores are cultured in liquid NPB 98-1 medium or liquid NPB-99 medium, preferably liquid NPB-99 medium, as a suspension culture. An aliquot of 2 ml media per 35 mm×10 mm Petri dish, or 5 ml media per 60 mm×15 mm Petri dish, at a density of approximately 1.5×10^4 microspores per ml is effective. Immature ovaries are added to the culture at a density of one per ml of medium immediately preceding the incubation. Ovaries are aseptically picked out from fresh and disinfected spikes. Ovaries of all genotypes are effective for the present invention, but the ovaries from varieties Chris or Pavon 76 are preferred for embryogenesis of all wheat varieties tested. The Petri dish is sealed with parafilm and incubated in the dark at 27° C.
(§3) When embryoids reach the size of 1 to 2 mm, they are transferred aseptically to solid 190-2 or 190-2(b) medium, preferably 190-2(b) medium, at a density of 25-30 embryoids in each 100×15 mm Petri dish. They are incubated under continuous fluorescent light at room temperature (22° C.). In approximately two weeks, green plantlets develop and are ready for transfer to soil. Green plants are raised in the greenhouse, much like plants grown from seeds. If plants appear to be haploid, colchicine can be applied to induce chromosome doubling. Seeds produced on any plants are instantly homozygous, and so can immediately be used for rapid evaluation and selection in breeding, for analyses in genetics research, or for selection and evaluation of transformants in biotechnology.
Experiments were conducted to evaluate the effect of 2-HNA on embryoid induction and green plant regeneration. Plant material was treated in accordance with the methods set forth in Example 1, except as described herein. Tillers of wheat cultivar Chris were treated with 2-HNA at concentrations of 0, 1, 10 or 100 mg/l. Three tillers were utilized for each concentration of 2-HNA.
Chris tillers were placed in sterile flasks and incubated with 2-HNA dissolved in sterile water at 33° C. for 66 hours before blending to release the microspores. As an option to ease the work schedule, newly sampled tillers may be incubated with 2-HNA at 4° C. for up to 72 hrs prior to the 33° C. treatment. Isolated microspores were cultured in 60×15 mm Petri dishes each containing 5 ml of medium NPB 98-1, including 1 mg/l phenylacetic acid (PAA) and incubated at 27° C. The regeneration medium was 190-2. Five fresh, live, Chris ovaries per Petri dish were included in each Petri dish.

[2] = test system: microspores of wheat cultivar Pavon 76; assay: Optimization of 2-HNA concentration, embryoid yield and green plants (Example 3); format: cell-based
Procedure: as §1, §2, §3
Experiments were conducted to optimize the amount of 2-HNA utilized to stimulate androgenesis and regeneration of green plants. Plant material was treated in accordance with the methods set forth in Example 1, except as described herein. Tillers of wheat cultivar Pavon 76 were treated with 2-HNA at concentrations of 0, 100, 500 or 1000 mg/l. Two tillers were utilized per treatment.
Tillers were placed in sterile flasks containing 50 ml 2-HNA solution and incubated at 33° C. for 46 hours before blending to release microspores. Microspores were again cultured in 60×15 mm Petri dishes, each containing 5 ml medium NPB 98-1 and incubated at 27° C. The regeneration medium was 190-2. Five fresh, live, immature Pavon 76 ovaries per Petri dish were included in each Petri dish.

[3] = test system: Pavon 76 microspores; assay: Optimization of 2,4-D concentration, embryoid yield, green plants and doubled haploids (Example 5); format: cell-based, wheat
Procedure: as §1, §2, §3
Experiments were conducted to optimize the amount of 2,4-D utilized to induce androgenesis and regeneration of green plants. Plant material was treated in accordance with the methods set forth in Example 1, except as described herein. Spikes of wheat cultivar Pavon 76 were treated with 2,4-D at concentrations of 0, 0.2, 2.2, or 22.1 mg/l plus a fixed dose of 2-HNA at 100 mg/l. Two spikes were utilized per treatment.
Spikes were incubated in sterile flasks with 2-HNA plus different doses of 2,4-D. The flasks were incubated at 33° C. for 46 hours before blending to release microspores. Microspores were cultured in 6-cm Petri dishes, each containing 5 ml medium NPB 98-1 plus 0 or 0.2 mg/l 2,4-D and incubated at 27° C. The regeneration medium was 190-2. Five fresh, live, immature Chris ovaries per Petri dish were included in each Petri dish.

[4] = test system: microspores of wheat cultivar Chris; assay: Optimization of 2,4-D concentration, embryoid yield and green plants (Example 4); format: cell-based
Procedure: as §1, §2, §3
Experiments were conducted to optimize the amount of 2,4-D utilized to enhance androgenesis and regeneration of green plants. Plant material was treated in accordance with the methods set forth in Example 1, except as described herein. Tillers of wheat cultivar Chris were treated with 2,4-D at concentrations of 0.2, 22.1, or 221 mg/l plus a fixed dose of 2-HNA at 100 mg/l. Two tillers were utilized per treatment.
Tillers in flasks with 2-HNA, plus different 2,4-D doses were placed at 33° C. for 70 hours before blending to release microspores. Microspores were cultured in 60×15 mm Petri dishes, each containing 5 ml medium NPB 98-1 plus 1 mg/l 2,4-D and incubated at 27° C. The regeneration medium was 190-2. Five fresh, live, immature Chris ovaries per Petri dish were included in each Petri dish.

[5] = 2-HNA 100 mg/l, % of embryoids transferred to regeneration medium, single repeats
[6] = pretreatment 2-HNA 100 mg/l, 2,4-D 0 mg/l, mean
[7] = pretreatment 2,4-D 0.2 mg/l + 2-HNA 100 mg/l, mean
[8] = pretreatment 2,4-D 0.2 mg/l + 2-HNA 100 mg/l, single repeats
[9] = pretreatment 2,4-D 22.1 mg/l + 2-HNA 100 mg/l, mean
[10] = pretreatment 2,4-D 22.1 mg/l + 2-HNA 100 mg/l, single repeats
[11] = pretreatment 2,4-D 2.2 mg/l + 2-HNA 100 mg/l, mean
[12] = pretreatment 2,4-D 2.2 mg/l + 2-HNA 100 mg/l, single repeats

SMILES: O=C(O)c1cccnc1O [2-HNA, 2-hydroxynicotinic acid]
- number of induced embryoids, dependence on concentration ([1]; 2-HNA 0, 1, 10 or 100 mg/l): increases with increasing concentrations of 2-HNA
- percentage of regenerated green plants, dependence on concentration ([1]; 2-HNA 0, 1, 10 or 100 mg/l): does not significantly differ
- green plant (%) ([1]; 2-HNA 1 mg/l, % of embryoids transferred to regeneration medium, single repeats): 100%
- Number of embryoids ([1]; 2-HNA 1 mg/l, mean): 118
- green plant (%) ([1]; 2-HNA 1 mg/l, mean): 100%
- green plant (%) ([1]; 2-HNA 10 mg/l, % of embryoids transferred to regeneration medium, single repeats): 94% and 100%
- Number of embryoids ([1]; 2-HNA 10 mg/l, mean): 322
- green plant (%) ([1]; 2-HNA 10 mg/l, mean): 97%
- Number of embryoids ([1]; 2-HNA 100 mg/l, 33° C. 66 hours, single repeats (rep 1, rep 2)): 1258 and 1217
- green plant (%) [1, 5]: 100%
- Number of embryoids ([1]; 2-HNA 100 mg/l, mean): 1238
- green plant (%) ([1]; 2-HNA 100 mg/l, mean): 100%
- green plant (%) [2, 5]: 60% and 67%
- # embryoids ([2]; 2-HNA 100 mg/l, mean): 1356
- green plant (%) ([2]; 2-HNA 100 mg/l, mean): 63%
- green plant (%) ([2]; 2-HNA 500 mg/l, % of embryoids transferred to regeneration medium, single repeats): 33%
- # embryoids ([2]; 2-HNA 500 mg/l, mean): 66
- green plant (%) ([2]; 2-HNA 500 mg/l, mean): 33%
- green plant (%) ([2]; 2-HNA 1000 mg/l, % of embryoids transferred to regeneration medium, single repeats): 40% and 22%
- # embryoids ([2]; 2-HNA 1000 mg/l, mean): 768
- green plant (%) ([2]; 2-HNA 1000 mg/l, mean): 31%
- 2-HNA concentration at which number of induced embryoids and percentage of regenerated green plants were highest ([2]; tested 0, 100, 500 or 1000 mg/l): 100 mg/L
- Number of embryoids ([3]; pretreatment 2-HNA 100 mg/l, 2,4-D 0 mg/l, induction medium 2,4-D 0, 33° C. 46 hours, single repeats): 603 and 607
- Number of embryoids [3, 6]: 605
- green plant (%) [3, 6]: 19%
- green plant (%) ([3]; pretreatment 2-HNA 100 mg/l, 2,4-D 0 mg/l, single repeats): 13% and 25%

SMILES: O=C(O)COc1ccc(Cl)cc1Cl [2,4-D, 2,4-dichlorophenoxyacetic acid]
- 2,4-D concentration during the pretreatment at which number of induced embryoids and percentage of regenerated green plants were highest ([4]; plus 2-HNA 100 mg/l): 1 mg/L
- Number of embryoids ([4]; pretreatment 2,4-D 0.2 mg/l + 2-HNA 100 mg/l, 33° C. 70 hours, induction medium 2,4-D 1 mg/l, single repeats): 2088 and 2107
- Number of embryoids [4, 7]: 2098
- green plant (%) [4, 7]: 92%
- green plant (%) [4, 8]: 83% and 100%
- Number of embryoids ([4]; pretreatment 2,4-D 22.1 mg/l + 2-HNA 100 mg/l, 33° C. 70 hours, induction medium 2,4-D 1 mg/l, single repeats): 1908 and 1156
- Number of embryoids [4, 9]: 1532
- green plant (%) [4, 9]: 71%
- green plant (%) [4, 10]: 63% and 79%
- Number of embryoids ([4]; pretreatment 2,4-D 221 mg/l + 2-HNA 100 mg/l, 33° C. 70 hours, induction medium 2,4-D 1 mg/l, single repeats): 0
- Number of embryoids ([4]; pretreatment 2,4-D 221 mg/l + 2-HNA 100 mg/l, mean): 0
- 2,4-D concentration during the pretreatment at which number of induced embryoids and percentage of regenerated green plants were highest ([3]; plus 2-HNA 100 mg/l): 2.2 mg/L
- Number of embryoids ([3]; pretreatment 2,4-D 0.2 mg/l + 2-HNA 100 mg/l, induction medium 2,4-D 0.2 mg/l, single repeats): 1200 and 1121
- Number of embryoids [3, 7]: 1161
- green plant (%) [3, 7]: 9%
- green plant (%) [3, 8]: 9%
- Number of embryoids ([3]; pretreatment 2,4-D 2.2 mg/l + 2-HNA 100 mg/l, induction medium 2,4-D 0.2 mg/l, single repeats): 1675 and 1634
- Number of embryoids [3, 11]: 1655
- green plant (%) [3, 11]: 30%
- Doubled-Haploid % [3, 12]: 50% and 38%
- green plant (%) [3, 12]: 31% and 28%
- Number of embryoids ([3]; pretreatment 2,4-D 22.1 mg/l + 2-HNA 100 mg/l, induction medium 2,4-D 0.2 mg/l, single repeats): 1119 and 1012
- Number of embryoids [3, 9]: 1066
- green plant (%) [3, 9]: 18%
- Doubled-Haploid % [3, 10]: 17%
